Among the data in patent US8361998B2, “Compounds and their use as IKACh blockers” (AstraZeneca AB, priority 2010, dated 2013) are IC50 values, retold here.

Where only a bound is given, the exact number is not on record here.

The target in the first test is T1, human cardiac ion channel proteins hKir3.1/Kir3.4 (Homo sapiens, UniProt P48544+P48549).
T1 construct: expressed in transfected cells
T1 sequence (P48549 1-501): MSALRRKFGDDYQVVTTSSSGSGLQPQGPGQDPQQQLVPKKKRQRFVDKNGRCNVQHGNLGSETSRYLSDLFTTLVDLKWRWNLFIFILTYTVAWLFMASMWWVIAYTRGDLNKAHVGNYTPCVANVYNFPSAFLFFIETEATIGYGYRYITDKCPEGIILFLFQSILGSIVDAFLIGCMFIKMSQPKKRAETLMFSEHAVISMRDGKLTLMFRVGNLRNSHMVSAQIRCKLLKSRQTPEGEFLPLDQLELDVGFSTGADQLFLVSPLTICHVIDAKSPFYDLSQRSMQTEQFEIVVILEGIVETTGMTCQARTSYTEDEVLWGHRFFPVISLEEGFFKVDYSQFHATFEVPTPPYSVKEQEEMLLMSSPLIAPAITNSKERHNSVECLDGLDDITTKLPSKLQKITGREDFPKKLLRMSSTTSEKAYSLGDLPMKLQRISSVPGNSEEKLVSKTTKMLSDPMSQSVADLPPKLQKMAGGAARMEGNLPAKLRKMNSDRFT
T1 sequence (P48544 1-419): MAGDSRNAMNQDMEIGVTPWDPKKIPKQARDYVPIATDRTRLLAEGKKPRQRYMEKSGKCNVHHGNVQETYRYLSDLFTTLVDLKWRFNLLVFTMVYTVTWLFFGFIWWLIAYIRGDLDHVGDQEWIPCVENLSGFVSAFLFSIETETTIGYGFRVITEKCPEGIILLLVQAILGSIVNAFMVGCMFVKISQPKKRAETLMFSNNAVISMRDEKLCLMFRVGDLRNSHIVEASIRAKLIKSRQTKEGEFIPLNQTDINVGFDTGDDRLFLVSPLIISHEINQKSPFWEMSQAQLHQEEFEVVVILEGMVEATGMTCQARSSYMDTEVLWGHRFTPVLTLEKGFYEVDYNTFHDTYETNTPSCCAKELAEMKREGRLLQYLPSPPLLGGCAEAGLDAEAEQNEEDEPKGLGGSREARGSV
Briefly: Atomic Absorption Screening (AAS) Rb efflux assay of hKir3.1/Kir3.4 block, carbachol/high K+ stimulated, 10-pt or 7-pt CR. It counts as cell-based. The following applies: 7-pt CR (0.037 to 27 μmol/L), AAS Rb efflux, CHO-K1 cells expressing hKir3.1/Kir3.4; mean of >3 replicates; read-out: IKACh IC50 7-pt CR, AAS. Put shortly:
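Mean IC50s derive from >4 replicates over 0.003–67 μmol/L (10-point) or >3 replicates over 0.037–27 μmol/L (7-point), both threefold steps. Rb-loaded (3 h, 37° C) CHO-K1 cells stably expressing hKir3.1/Kir3.4 saw compound for 5 min at RT before 10-min channel opening by carbachol 10 μM/KCl 20 mM final. Released Rb was quantified by atomic absorption.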
As usually defined, the IC50 is the concentration at which inhibition is half-maximal. With `Cc1cc(C(=O)N(C)[C@H](CN2CC[C@H](O)C2)C(C)C)ccc1F` [Example 16.40, 4-Fluoro-N-[(1S)-1-{[(3S)-3-hydroxypyrrolidin-1-yl]methyl}-2-methylpropyl]-N,3-dimethylbenzamide], the 50% inhibitory concentration (IC50) is 3.2 µM.

Consider `CC(C)[C@@H](CN1CCCC1)N(C)C(=O)c1ccccc1F` [Example 16.18, (S)-2-Fluoro-N-methyl-N-(3-methyl-1-(pyrrolidin-1-yl)butan-2-yl)benzamide], for which the IC50 was found to be 11 µM. Regarding `CC(C)[C@@H](CN1CC[C@H](O)C1)N(C)C(=O)c1cc(F)cc(C(F)(F)F)c1` [Example 16.44, 3-Fluoro-N-[(1S)-1-{[(3S)-3-hydroxypyrrolidin-1-yl]methyl}-2-methylpropyl]-N-methyl-5-(trifluoromethyl)benzamide], the IC50 was found to be 8.4 µM. Regarding `CC(C)[C@@H](CN1CCCC1)N(C)C(=O)c1cc(F)cc(F)c1` [Example 16.12, (S)-3,5-Difluoro-N-methyl-N-(3-methyl-1-(pyrrolidin-1-yl)butan-2-yl)benzamide], the concentration for half-maximal inhibition (IC50) came to 23 µM. With `CC(C)[C@@H](CN1CCCC1)N(C)C(=O)c1ccccc1C(F)(F)F` [Example 16.20, (S)—N-Methyl-N-(3-methyl-1-(pyrrolidin-1-yl)butan-2-yl)-2-(trifluoromethyl)benzamide], the IC50 amounted to 14 µM. Consider `CC(C)[C@H](CN1CCCC1)N(C)C(=O)c1ccc(Cl)cc1Cl` [Example 16.58, (R)-2,4-Dichloro-N-methyl-N-(3-methyl-1-(pyrrolidin-1-yl)butan-2-yl)benzamide], for which the IC50 was found to be 5.8 µM.

The test is the same for the next values; noted with them: 10-pt CR (0.003 to 67 μmol/L), AAS Rb efflux, CHO-K1 cells expressing hKir3.1/Kir3.4; mean of >4 replicates; read-out: IKACh IC50 10-pt CR, AAS.
For `CCc1ccc(C(=O)N(C)[C@H](CN2CC(O)C2)[C@@H](C)CC)cc1` [Example 29.3, 4-Ethyl-N-((2S,3S)-1-(3-hydroxyazetidin-1-yl)-3-methylpentan-2-yl)-N-methylbenzamide], the IC50 is 0.22 µM. As to `COc1ccc(C(=O)N(C)[C@H](CN2CC(O)C2)C2CCC2)c(F)c1` [Example 39.5, (S)—N-(1-Cyclobutyl-2-(3-hydroxyazetidin-1-yl)ethyl)-2-fluoro-4-methoxy-N-methylbenzamide], the concentration for half-maximal inhibition (IC50) came out at 1.1 µM. For the compound `CCN(C(=O)c1ccc(F)c(C)c1)[C@H](CN1CCCC1)C(C)C` [Example 15.2, (S)-N-Ethyl-4-fluoro-3-methyl-N-(3-methyl-1-(pyrrolidin-1-yl)butan-2-yl)benzamide], the IC50 was found to be 18 µM.

`CN(C(=O)c1ccc(F)c(F)c1)[C@H](CN1CCCC1)C1CC1` [Example 3.16, (S)-N-(1-Cyclopropyl-2-(pyrrolidin-1-yl)ethyl)-3,4-difluoro-N-methylbenzamide]: the half-maximal inhibitory concentration (IC50) stood at 13 µM.

For `CCCC[C@@H](CN1CC(O)C1)N(C)C(=O)c1ccc(F)c(Cl)c1` [Example 33.8, 3-Chloro-4-fluoro-N-[(2S)-1-(3-hydroxyazetidin-1-yl)hexan-2-yl]-N-methylbenzamide], the IC50 amounted to 0.16 µM. `CN(C(=O)c1ccc(OC(F)F)cc1)[C@@H](CN1CC(O)C1)C1CCC1` [Example 35.3, N-[(1R)-1-Cyclobutyl-2-(3-hydroxyazetidin-1-yl)ethyl]-4-(difluoromethoxy)-N-methylbenzamide]: the IC50 was determined as 8.7 µM.

On to `CC(C)[C@@H](CN1C[C@H](O)[C@@H](O)C1)N(C)C(=O)c1ccc(Cl)cc1` [Example 8.14, 4-Chloro-N-((S)-1-((3S,4S)-3,4-dihydroxypyrrolidin-1-yl)-3-methylbutan-2-yl)-N-methylbenzamide], for which the IC50 amounted to 5.8 µM.

With `Cc1cc(C(=O)N(C)[C@H](CN2CCCC2)[C@@H](C)OC(C)(C)C)ccc1F` [Example 14, N-((2R,3R)-3-Tert-butoxy-1-(pyrrolidin-1-yl)butan-2-yl)-4-fluoro-N,3-dimethylbenzamide], the IC50 was 16 µM. Same read-out and setting: the result for `Cc1cc(C(=O)N(C)[C@](C)(CN2CC(O)C2)C(C)C)ccc1F` [Example 22, (S)-4-Fluoro-N-(1-(3-hydroxyazetidin-1-yl)-2,3-dimethylbutan-2-yl)-N,3-dimethylbenzamide] reads 19 µM. Consider `CCC[C@@H](CN1CCC(O)CC1)N(C)C(=O)c1ccc(Cl)cc1` [Example 44, (S)-4-Chloro-N-(1-(4-hydroxypiperidin-1-yl)pentan-2-yl)-N-methylbenzamide], for which the IC50 came out at 0.81 µM. As to `CN(C(=O)c1ccc(F)c(C#N)c1)[C@@H](CN1CC(O)C1)C1CCC1` [Example 35.9, 3-Cyano-N-[(1R)-1-cyclobutyl-2-(3-hydroxyazetidin-1-yl)ethyl]-4-fluoro-N-methylbenzamide], the half-maximal inhibitory concentration (IC50) stood at 4.6 µM. With `CN(C(=O)c1ccc(F)c(F)c1)[C@H](CN1CCC1)C1CC1` [Example 9.11, (S)-N-(2-(Azetidin-1-yl)-1-cyclopropylethyl)-3,4-difluoro-N-methylbenzamide], the IC50 was determined as 12 µM.

Take `COC1CCN(C[C@H](C(C)C)N(C)C(=O)c2ccc(F)c(Cl)c2)CC1` [Example 3.9, (S)-3-Chloro-4-fluoro-N-(1-(4-methoxypiperidin-1-yl)-3-methylbutan-2-yl)-N-methylbenzamide]: the 50% inhibitory concentration (IC50) was determined as 3 µM. As for `Cc1cc(C(=O)N(C)[C@H](CN2CCC2)C(C)C)ccc1F` [Example 1.10, (S)-N-(1-(Azetidin-1-yl)-3-methylbutan-2-yl)-4-fluoro-N,3-dimethylbenzamide], the IC50 was determined as 6.9 µM. As for `CC(C)[C@@H](CN1CCCC1)N(C)C(=O)c1cc(F)cc(F)c1` [Example 16.12, (S)-3,5-Difluoro-N-methyl-N-(3-methyl-1-(pyrrolidin-1-yl)butan-2-yl)benzamide], the half-inhibitory concentration (IC50) was 15 µM.

As for `Cc1cc(C(=O)N(C)[C@H](CN2C[C@H](O)[C@@H](O)C2)C(C)C)ccc1Cl` [Example 8.13, 4-Chloro-N-((S)-1-((3S,4S)-3,4-dihydroxypyrrolidin-1-yl)-3-methylbutan-2-yl)-N,3-dimethylbenzamide], the IC50 came to 1.9 µM. As to `CN(C(=O)c1ccc(Cl)cc1)[C@H](CN1CCC1)C1CC1` [Example 4.2, (S)-N-(2-(Azetidin-1-yl)-1-cyclopropylethyl)-4-chloro-N-methylbenzamide], the IC50 was determined as 2.8 µM.

In the case of `CCCC[C@@H](CN1CC(O)C1)N(C)C(=O)c1ccc(C#N)cc1F` [Example 33.3, 4-Cyano-2-fluoro-N-[(2S)-1-(3-hydroxyazetidin-1-yl)hexan-2-yl]-N-methylbenzamide], the IC50 was 0.84 µM. On the same count and under the same terms, the result for `CN(C(=O)c1cc(F)cc(C#N)c1)[C@H](CN1CC(O)C1)C1CCCCC1` [Example 36.6, 3-Cyano-N-[(1S)-1-cyclohexyl-2-(3-hydroxyazetidin-1-yl)ethyl]-5-fluoro-N-methylbenzamide] reads 1.9 µM; that for `CO[C@H](C)[C@@H](CN1CCCC1)N(C)C(=O)c1ccc(Cl)cc1` [Example 3.5, 4-Chloro-N-((2R,3R)-3-methoxy-1-(pyrrolidin-1-yl)butan-2-yl)-N-methylbenzamide], 7.2 µM; that for `CN(C(=O)c1ccc(Br)cc1)[C@H](CN1CCC1)C1CC1` [Example 4.3, (S)-N-(2-(Azetidin-1-yl)-1-cyclopropylethyl)-4-bromo-N-methylbenzamide], 6.8 µM. `CN(C(=O)c1ccc(F)c(F)c1)[C@H](CN1CC(O)C1)C1CCCC1` (single isomer, unassigned) [32.1, isomer 1]: the IC50 stood at 0.26 µM.

Still in this test, the particulars now being: printed as IC50 >67 μM in the 10-pt CR assay or IC50 >27 μM in the 7-pt CR assay; assay format per compound not stated; read-out: IC50.
Turning to `CC(C)[C@H](CN1CCCC1)N(C)C(=O)c1ccc(F)c(Cl)c1` [3-Chloro-4-fluoro-N-methyl-N-[(1R)-2-methyl-1-(pyrrolidin-1-ylmethyl)propyl]benzamide], the half-inhibitory concentration (IC50) is more than 27 µM.

On to `CC(C)[C@@H](CN1C[C@@H](O)[C@H](O)C1)N(C)C(=O)c1ccc(Cl)cc1` [4-Chloro-N-((S)-1-((3R,4R)-3,4-dihydroxypyrrolidin-1-yl)-3-methylbutan-2-yl)-N-methylbenzamide], for which the half-maximal inhibitory concentration (IC50) was more than 27 µM. Regarding `Cc1cccc(C(=O)N(C)[C@H](CN2CC[C@H](O)C2)C(C)C)c1` [N-[(1S)-1-{[(3S)-3-Hydroxypyrrolidin-1-yl]methyl}-2-methylpropyl]-N,3-dimethylbenzamide], the IC50 was more than 27 µM. Take `Cc1cc(F)ccc1C(=O)N(C)[C@H](CN1CCCC1)C(C)(C)C` [(S)-N-(3,3-Dimethyl-1-(pyrrolidin-1-yl)butan-2-yl)-4-fluoro-N,2-dimethylbenzamide]: the IC50 is more than 27 µM.
